Experimental data reported in patent publication US10364256B2 (GlaxoSmithKline Intellectual Property Development Limited, priority 2015, dated 2019).

What was measured:
[1] = target: T1, Keap1 Kelch domain (321-609) / TAMRA-labeled 16mer NRF2 peptide (ETGE motif) (Homo sapiens, UniProt Q14145); experiment: NRF2-Keap1 FP Assay (Keap1 Kelch fluorescence polarization); assay type: binding; conditions: 20 nM Keap1 (321-609), 8 nM Tamra labeled peptide
T1 construct: the Kelch domain (321-609) of Keap1 is used
Procedure, shortened: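 Compound dilutions (3-fold) were incubated 1 hr at room temperature with 20 nM Keap1 Kelch (321-609) and 8 nM TAMRA-labeled ETGE 16mer peptide. Buffer was 50 mM Tris pH 8.0, 100 mM NaCl, 5 mM MgCl2, 1 mM DTT, 2 mM CHAPS, 0.005% BSA. Fluorescence polarization (mP) was normalized to controls and fitted with a four-parameter equation to give pIC50.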

[2] = target: T2, full length Keap1 protein / full length NRF2 protein (Homo sapiens, UniProt Q14145); experiment: NRF2-Keap1 TR-FRET Low Protein Assay; assay type: binding; conditions: 1.25 nM Keap1 FlagHis and 2.5 nM biotin-NRF2 added
T2 construct: full length NRF2 protein and full length Keap1 protein (Keap1 exists a dimer) are used; His
Procedure, shortened: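 Flag-tagged full-length Keap1 was preincubated with compound (3-fold series) for 2.25 h at 37 °C in Tris pH 8.0/MgCl2/NaCl/BSA/DTT/CHAPS. Biotin-Avi-NRF2 (added at 2.5 nM) was then bound for 1.25 h at 4 °C. Eu-streptavidin/anti-Flag-APC TR-FRET (665/615 nm) was read after 1 h at RT, and pIC50 came from a four-parameter fit.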

T1 sequence (Q14145 321-609): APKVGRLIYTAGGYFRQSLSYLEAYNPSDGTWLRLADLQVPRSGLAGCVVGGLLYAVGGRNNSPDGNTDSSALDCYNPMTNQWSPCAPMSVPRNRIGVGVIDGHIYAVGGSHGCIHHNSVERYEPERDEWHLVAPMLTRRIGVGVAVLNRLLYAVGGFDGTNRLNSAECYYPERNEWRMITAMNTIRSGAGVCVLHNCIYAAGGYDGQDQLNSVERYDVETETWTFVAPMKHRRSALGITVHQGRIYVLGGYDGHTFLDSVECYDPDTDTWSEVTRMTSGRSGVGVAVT
T2 sequence (Q14145 whole entry): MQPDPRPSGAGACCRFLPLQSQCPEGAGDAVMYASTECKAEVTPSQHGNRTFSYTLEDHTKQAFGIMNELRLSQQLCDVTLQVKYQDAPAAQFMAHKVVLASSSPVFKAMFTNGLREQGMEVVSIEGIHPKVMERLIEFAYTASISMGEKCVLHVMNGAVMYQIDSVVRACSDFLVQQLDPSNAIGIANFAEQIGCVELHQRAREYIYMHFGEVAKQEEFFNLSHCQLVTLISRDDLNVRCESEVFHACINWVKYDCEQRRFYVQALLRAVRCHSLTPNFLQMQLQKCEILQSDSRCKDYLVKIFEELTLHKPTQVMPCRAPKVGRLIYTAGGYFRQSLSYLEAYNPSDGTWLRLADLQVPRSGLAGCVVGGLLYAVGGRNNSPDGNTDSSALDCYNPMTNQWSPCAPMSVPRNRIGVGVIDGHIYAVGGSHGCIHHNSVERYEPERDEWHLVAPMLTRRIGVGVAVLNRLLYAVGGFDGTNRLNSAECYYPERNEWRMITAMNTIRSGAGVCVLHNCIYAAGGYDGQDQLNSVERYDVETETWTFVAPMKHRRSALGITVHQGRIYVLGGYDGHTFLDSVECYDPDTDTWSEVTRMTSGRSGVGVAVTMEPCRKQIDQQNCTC

Row | Structure (SMILES) | IC50 [1] | IC50 [2]
1 | O=C(O)c1cnn(-c2cccc(-c3cccc(C(=O)N4CCCCC4C4CCCC4)c3F)c2)c1C1CC1 (stereo not shown) [Example 33, 1-{3-[3-(2-Cyclopentylpiperidine-1-carbonyl)-2-fluorophenyl]phenyl}-5-cyclopropyl-1H-pyrazole-4-carboxylic Acid] | 10 to 100 nM | 10 to 100 nM
2 | O=C(O)c1cnn(-c2cccc(-c3cccc(C(=O)N4C5CCCC4CCC5)c3F)c2)c1C1CC1 [Example 34, 1-[3-(3-{9-azabicyclo[3.3.1]nonane-9-carbonyl}-2-fluorophenyl)phenyl]-5-cyclopropyl-1H-pyrazole-4-carboxylic Acid] | 10 to 100 nM | 10 to 100 nM
3 | O=C(O)c1cnn(-c2cccc(-c3cccc(C(=O)N4CCCC5(CCCC5)C4)c3F)c2)c1C1CC1 [Example 35, 1-[3-(3-{7-Azaspiro[4.5]decane-7-carbonyl}-2-fluorophenyl)phenyl]-5-cyclopropyl-1H-pyrazole-4-carboxylic Acid] | 10 to 100 nM | 10 to 100 nM
4 | O=C(O)c1cnn(-c2cccc(-c3cccc(C(=O)N4CCCCC4CCC(F)(F)F)c3F)c2)c1C1CC1 (stereo not shown) [Example 38, 5-Cyclopropyl-1-(3-{2-fluoro-3-[2-(3,3,3-trifluoropropyl)piperidine-1-carbonyl]phenyl}phenyl)-1H-pyrazole-4-carboxylic Acid] | 10 to 100 nM | 10 to 100 nM
5 | CCC[C@@H]1CO[C@@H](C)CN1C(=O)c1cccc(-c2cccc(-n3ncc(C(=O)O)c3C3CC3)c2)c1F [Example 45, 5-cyclopropyl-1-(3-{2-fluoro-3-[(2S,5R)-2-methyl-5-propylmorpholine-4-carbonyl]phenyl}phenyl)-1H-pyrazole-4-carboxylic Acid] | 10 to 100 nM | 10 to 100 nM
6 | CC1CC(C)CN(C(=O)c2cccc(-c3cccc(-n4ncc(C(=O)O)c4C4CC4)c3)c2F)C1 (stereo not shown) [Example 53, 5-Cyclopropyl-1-[3′-(3,5-dimethyl-piperidine-1-carbonyl)-2′-fluoro-biphenyl-3-yl]-1H-pyrazole-4-carboxylic Acid] | 10 to 100 nM | 10 to 100 nM
7 | CCC[C@@H]1CCCCN1C(=O)c1cccc(-c2cccc(-n3ncc(C(=O)O)c3C3CC3)c2)c1F [Example 54e, 5-Cyclopropyl-1-{3-[2-fluoro-3-((2-S)-2-propylpiperidine-1-carbonyl)phenyl]phenyl}-1H-pyrazole-4-carboxylic Acid] | 100 to 1000 nM | 100 to 1000 nM
8 | CCC[C@@H]1CCCCN1C(=O)c1cccc(-c2cccc(-n3ncc(C(=O)O)c3CCc3cn(C)nn3)c2)c1F [Example 55, (R)-1-(2′-Fluoro-3′-(2-propylpiperidine-1-carbonyl)-[1,1′-biphenyl]-3-yl)-5-(2-(1-methyl-1H-1,2,3-triazol-4-yl)ethyl)-1H-pyrazole-4-carboxylic Acid] | 10 to 100 nM | 10 to 100 nM
9 | CC(C)Oc1cccc(-c2cccc(-n3ncc(C(=O)O)c3C3CC3c3cn(C)nn3)c2)c1 (stereo not shown) [Example 59, 1-(3′-Isopropoxy-[1,1′-biphenyl]-3-yl)-5-(2-(1-methyl-1H-1,2,3-triazol-4-yl)cyclopropyl)-1H-pyrazole-4-carboxylic Acid] | 100 to 1000 nM | 100 to 1000 nM
10 | CC1(C)CCc2cnn(-c3cccc(-c4cccc(-n5ncc(C(=O)O)c5C5CC5)c4)c3)c21 [Example 63, 5-Cyclopropyl-1-(3′-(6,6-dimethyl-5,6-dihydrocyclopenta[c]pyrazol-1(4H)-yl)-[1,1′-biphenyl]-3-yl)-1H-pyrazole-4-carboxylic Acid] | 100 to 1000 nM | 10 to 100 nM
11 | CC1(C)CCc2cnn(-c3cccc(-c4cccc(-n5ncc(C(=O)O)c5C(F)(F)F)c4)c3)c21 [Example 250, 1-(3′-(6,6-Dimethyl-5,6-dihydrocyclopenta[c]pyrazol-1(4H)-yl)-[1,1′-biphenyl]-3-yl)-5-(trifluoromethyl)-1H-pyrazole-4-carboxylic Acid] | 100 to 1000 nM | 100 to 1000 nM
12 | C[C@@H]1CN(Cc2cccc(-c3cccc(-n4ncc(C(=O)O)c4[C@@H]4C[C@H]4c4cn(C)nn4)c3)c2)Cc2ccccc2O1 [Example 253] | 10 to 100 nM | < 10 nM
13 | CCOC[C@@H]1CCCN1C(=O)c1cccc(-c2cccc(-n3ncc(C(=O)O)c3[C@@H]3C[C@H]3c3cn(C)nn3)c2)c1F [Example 267] | 10 to 100 nM | < 10 nM
14 | CCOC[C@H]1CCCN1C(=O)c1cccc(-c2cccc(-n3ncc(C(=O)O)c3[C@@H]3C[C@H]3c3cn(C)nn3)c2)c1F [Example 268] | 10 to 100 nM | < 10 nM
